Results as given in patent US9586951B2 (FUJIFILM Corporation, priority 2013, dated 2017).

target: T1, ATM (Homo sapiens, UniProt Q13315); experiment: ATM inhibition test (phosphorylation of Chk2 generated by ionizing radiation, AlphaScreen SureFire); type: cell-based; settings: phosphorylated Chk2 in NCI-H460 cells, ionizing radiation 8Gy, 1 hour after test compound treatment; read-out: ATM inhibitory activity
T1 construct: detecting phosphorylation of Chk2 in a human non-small cell lung cancer cell line NCI-H460 (ATCC company); host or cells: NCI-H460 human non-small cell lung cancer cells
Experimental: ATM inhibitory effects of a test compound were measured by detecting phosphorylation of Chk2 in a human non-small cell lung cancer cell line NCI-H460 (ATCC company). The level of phosphorylated Chk2 generated by an ionizing radiation was measured using AlphaScreen SureFire (TGR Biosciences).
The cells were seeded by 40000 cells per well in 96-well CellBIND® plates (Corning International Inc.), and incubated at 37° C. overnight in 5% CO2. […] 1 hour after a test compound treatment, half of the plates were irradiated with ionizing radiation 8Gy (Faxitron Bioptics, LLC, RX-650 type). The plates irradiated with ionizing radiation and the plates not being irradiated with ionizing radiation were incubated at 37° C. for 1 hour in 5% CO2. […] Subsequent operations were performed according to the instruction book of AlphaScreen SureFire. […] The inhibition ratio was calculated by the following equation. Inhibition ratio (%)=((signal of drug untreated wells in the plates irradiated with ionizing radiation−signal of drug treated wells in the plates irradiated with ionizing radiation)/(signal of drug untreated wells in the plates irradiated with ionizing radiation−signal of drug untreated wells in the plates not being irradiated with ionizing radiation))×100

T1 sequence (Q13315 whole entry): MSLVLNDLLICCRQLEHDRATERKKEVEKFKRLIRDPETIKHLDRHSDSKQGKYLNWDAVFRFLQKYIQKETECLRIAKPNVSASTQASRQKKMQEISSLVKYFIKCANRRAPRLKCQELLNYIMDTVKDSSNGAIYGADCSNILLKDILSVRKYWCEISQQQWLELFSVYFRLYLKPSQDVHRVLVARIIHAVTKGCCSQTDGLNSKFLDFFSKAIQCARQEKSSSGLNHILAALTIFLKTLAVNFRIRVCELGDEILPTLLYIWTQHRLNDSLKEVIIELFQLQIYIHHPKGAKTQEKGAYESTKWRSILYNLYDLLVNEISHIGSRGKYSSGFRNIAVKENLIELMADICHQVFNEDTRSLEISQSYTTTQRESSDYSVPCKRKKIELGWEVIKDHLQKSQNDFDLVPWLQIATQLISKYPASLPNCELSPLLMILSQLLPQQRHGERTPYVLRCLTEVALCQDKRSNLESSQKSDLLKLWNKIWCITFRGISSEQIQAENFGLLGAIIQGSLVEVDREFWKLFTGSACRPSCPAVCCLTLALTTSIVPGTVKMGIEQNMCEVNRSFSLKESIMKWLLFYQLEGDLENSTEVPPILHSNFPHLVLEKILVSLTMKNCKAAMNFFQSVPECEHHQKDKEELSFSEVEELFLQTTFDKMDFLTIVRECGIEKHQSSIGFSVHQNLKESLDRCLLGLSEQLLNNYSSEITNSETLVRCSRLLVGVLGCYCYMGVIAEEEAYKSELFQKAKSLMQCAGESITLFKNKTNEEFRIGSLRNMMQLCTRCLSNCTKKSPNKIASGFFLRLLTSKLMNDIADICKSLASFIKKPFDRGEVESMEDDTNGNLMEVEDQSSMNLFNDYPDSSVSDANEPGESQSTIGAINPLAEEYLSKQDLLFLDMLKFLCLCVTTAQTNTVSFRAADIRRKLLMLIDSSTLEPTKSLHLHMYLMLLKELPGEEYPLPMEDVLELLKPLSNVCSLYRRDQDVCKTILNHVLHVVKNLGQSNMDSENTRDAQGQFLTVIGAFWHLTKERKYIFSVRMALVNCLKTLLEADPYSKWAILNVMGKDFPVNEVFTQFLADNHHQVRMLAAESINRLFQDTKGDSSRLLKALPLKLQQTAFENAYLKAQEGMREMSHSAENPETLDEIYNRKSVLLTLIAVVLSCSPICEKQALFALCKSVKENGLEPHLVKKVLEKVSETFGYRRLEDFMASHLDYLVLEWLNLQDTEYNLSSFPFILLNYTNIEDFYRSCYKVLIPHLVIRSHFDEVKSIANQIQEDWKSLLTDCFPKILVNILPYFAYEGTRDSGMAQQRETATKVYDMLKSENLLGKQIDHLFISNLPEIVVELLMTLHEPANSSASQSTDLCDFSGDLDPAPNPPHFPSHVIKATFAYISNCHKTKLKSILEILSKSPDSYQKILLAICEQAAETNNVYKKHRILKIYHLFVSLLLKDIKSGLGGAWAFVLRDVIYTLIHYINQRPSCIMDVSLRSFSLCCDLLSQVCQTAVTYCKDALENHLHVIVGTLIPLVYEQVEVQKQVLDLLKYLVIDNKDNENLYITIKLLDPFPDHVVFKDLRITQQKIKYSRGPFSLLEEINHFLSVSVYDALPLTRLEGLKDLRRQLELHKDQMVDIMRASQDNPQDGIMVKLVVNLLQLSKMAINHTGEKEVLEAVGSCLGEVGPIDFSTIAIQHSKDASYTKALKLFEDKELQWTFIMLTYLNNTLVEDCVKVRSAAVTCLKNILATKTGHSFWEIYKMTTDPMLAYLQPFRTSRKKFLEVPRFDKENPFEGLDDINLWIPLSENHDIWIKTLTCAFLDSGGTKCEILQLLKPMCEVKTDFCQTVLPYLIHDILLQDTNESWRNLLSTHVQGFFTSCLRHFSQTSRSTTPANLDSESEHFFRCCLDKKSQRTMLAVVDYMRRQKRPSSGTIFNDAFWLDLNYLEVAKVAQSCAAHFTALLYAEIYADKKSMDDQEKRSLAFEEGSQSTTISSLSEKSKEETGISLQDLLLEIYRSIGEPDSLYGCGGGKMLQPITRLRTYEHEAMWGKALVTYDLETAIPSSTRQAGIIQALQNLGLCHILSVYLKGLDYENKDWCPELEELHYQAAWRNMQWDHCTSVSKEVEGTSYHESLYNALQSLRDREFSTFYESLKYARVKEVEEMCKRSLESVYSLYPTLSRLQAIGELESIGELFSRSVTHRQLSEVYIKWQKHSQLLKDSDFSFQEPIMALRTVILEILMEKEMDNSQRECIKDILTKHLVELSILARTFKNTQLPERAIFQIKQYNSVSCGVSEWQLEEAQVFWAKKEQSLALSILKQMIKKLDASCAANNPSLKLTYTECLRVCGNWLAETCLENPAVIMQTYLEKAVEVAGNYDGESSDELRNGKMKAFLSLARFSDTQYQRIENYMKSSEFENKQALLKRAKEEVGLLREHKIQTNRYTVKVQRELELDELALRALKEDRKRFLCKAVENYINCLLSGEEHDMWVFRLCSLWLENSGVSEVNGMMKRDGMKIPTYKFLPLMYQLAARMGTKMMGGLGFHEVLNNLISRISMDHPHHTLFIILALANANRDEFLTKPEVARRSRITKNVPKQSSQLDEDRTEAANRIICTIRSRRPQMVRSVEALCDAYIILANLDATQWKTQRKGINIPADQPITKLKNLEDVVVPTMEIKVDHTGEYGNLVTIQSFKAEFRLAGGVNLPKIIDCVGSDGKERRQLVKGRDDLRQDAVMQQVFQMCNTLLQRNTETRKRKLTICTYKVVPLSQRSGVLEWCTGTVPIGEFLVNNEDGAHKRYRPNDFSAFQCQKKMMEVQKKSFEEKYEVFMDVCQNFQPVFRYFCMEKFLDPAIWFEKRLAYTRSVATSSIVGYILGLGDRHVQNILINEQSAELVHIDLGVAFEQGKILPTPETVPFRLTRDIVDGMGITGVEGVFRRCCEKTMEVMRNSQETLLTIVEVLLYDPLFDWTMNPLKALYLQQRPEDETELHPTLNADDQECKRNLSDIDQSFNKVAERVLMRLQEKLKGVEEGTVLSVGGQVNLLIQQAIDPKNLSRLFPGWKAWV

| IC50 [nM] | SMILES |
| --- | --- |
| 100 to 500 | CC(Nc1ccc2c(c1)Cc1cccc(-c3cc(N4CCOCC4)cc(=O)[nH]3)c1O2)c1cc(Cl)ccn1 (single isomer, unassigned) [Example 2-14-89-1, 6-(7-((1-(4-chloropyridin-2-yl)ethyl)amino)-9H-xanthen-4-yl)-4-morpholinopyridin-2(1H)-one] |
| 100 to 500 | Cc1ccnc(C(CO)Nc2ccc3c(c2)Cc2cccc(-c4cc(N5CCOCC5)cc(=O)[nH]4)c2O3)c1 (single isomer, unassigned) [Example 2-14-91, 6-(7-((2-hydroxy-1-(4-methylpyridin-2-yl)ethyl)amino)-9H-xanthen-4-yl)-4-morpholinopyridin-2(1H)-one] |
| 500 to 2000 | Cc1cccc(C(CO)Nc2ccc3c(c2)Cc2cccc(-c4cc(N5CCOCC5)cc(=O)[nH]4)c2O3)n1 (single isomer, unassigned) [Example 2-14-92-1, 6-(7-((2-hydroxy-1-(6-methylpyridin-2-yl)ethyl)amino)-9H-xanthen-4-yl)-4-morpholinopyridin-2(1H)-one] |
| 100 to 500 | Cc1ccnc(C(C)Nc2ccc3c(c2)Cc2cccc(-c4cc(N5CCOCC5)cc(=O)[nH]4)c2O3)c1 (single isomer, unassigned) [Example 2-14-93-1, 6-(7-((1-(4-methylpyridin-2-yl)ethyl)amino)-9H-xanthen-4-yl)-4-morpholinopyridin-2(1H)-one] |
| < 100 | Cc1ccnc(C(C)Nc2ccc3c(c2)Cc2cccc(-c4cc(N5CCOCC5)cc(=O)[nH]4)c2O3)c1 (single isomer, unassigned) [Example 2-14-93-2, 6-(7-((1-(4-methylpyridin-2-yl)ethyl)amino)-9H-xanthen-4-yl)-4-morpholinopyridin-2(1H)-one] |
| 500 to 2000 | CC(Nc1ccc2c(c1)Cc1cccc(-c3cc(N4CCOCC4)cc(=O)[nH]3)c1O2)c1cccnc1 (single isomer, unassigned) [Example 2-36-1, 4-morpholino-6-(7-((1-(pyridin-3-yl)ethyl)amino)-9H-xanthen-4-yl)pyridin-2(1H)-one] |
| 100 to 500 | CC(Nc1ccc2c(c1)Cc1cccc(-c3cc(N4CCOCC4)cc(=O)[nH]3)c1O2)c1cccnc1 (single isomer, unassigned) [Example 2-36-2, 4-Morpholino-6-(7-((1-(pyridin-3-yl)ethyl)amino)-9H-xanthen-4-yl)pyridin-2(1H)-one] |

More lines, now with the values behind:

| SMILES | IC50 [nM] |
| --- | --- |
| Cc1cncc(C(C)Nc2ccc3c(c2)Cc2cccc(-c4cc(N5CCOCC5)cc(=O)[nH]4)c2O3)c1 (single isomer, unassigned) [Example 2-14-88-1, 6-(7-((1-(5-methylpyridin-3-yl)ethyl)amino)-9H-xanthen-4-yl)-4-morpholinopyridin-2(1H)-one] | 100 to 500 |
| Cc1cncc(C(C)Nc2ccc3c(c2)Cc2cccc(-c4cc(N5CCOCC5)cc(=O)[nH]4)c2O3)c1 (single isomer, unassigned) [Example 2-14-88-2, 6-(7-((1-(5-methylpyridin-3-yl)ethyl)amino)-9H-xanthen-4-yl)-4-morpholinopyridin-2(1H)-one] | 100 to 500 |
| Cc1cnc(C(C)Nc2ccc3c(c2)Cc2cccc(-c4cc(N5CCOCC5)cc(=O)[nH]4)c2O3)cn1 (single isomer, unassigned) [Example 2-14-90-1, 6-(7-((1-(5-methylpyrazin-2-yl)ethyl)amino)-9H-xanthen-4-yl)-4-morpholinopyridin-2(1H)-one] | 500 to 2000 |
| CC(Nc1ccc2c(c1)Cc1cccc(-c3cc(N4CCOCC4)cc(=O)[nH]3)c1O2)c1nccc(CF)n1 (single isomer, unassigned) [Example 2-14-94-2, 6-(7-((1-(4-(fluoromethyl)pyrimidin-2-yl)ethyl)amino)-9H-xanthen-4-yl)-4-morpholinopyridin-2(1H)-one] | 100 to 500 |
| CCC(Nc1ccc2c(c1)Cc1cccc(-c3cc(N4CCOCC4)cc(=O)[nH]3)c1O2)c1cncc(OC)c1 (single isomer, unassigned) [Example 2-37, 6-(7-((1-(5-methoxypyridin-3-yl)propyl)amino)-9H-xanthen-4-yl)-4-morpholinopyridin-2(1H)-one] | 100 to 500 |
